The text below walks through data of patent US6503881B2 (priority 1996, dated 2003).

≈ marks a conversion by molar mass, not a printed value. Where two headings read alike, the source gives them in different places. Peptide text beside a SMILES is read from it. Where only a bound is given, the exact number is not on record here.

Assay [1] deals with inherently resistant microorganisms.
Assay [2] deals with microorganisms with acquired resistance. To be noted: for FIC: peptide + Tobramycin.
A further assay concerns P. aeruginosa. Type of assay: cell-based.
The subject of the next assay is bacterial isolates. To be noted: for FIC: Tobramycin + peptide; for PIC: with Gentamicin.
The subject of assay [3] is microorganisms with acquired resistance. Kind of assay: microbe, parasite or virus in culture.
The mark [4] stands for this setting: S. maltophilia SMA018, pair Amikacin / MBI 11B16CN.
Setting [5] is: S. maltophilia SMA022, pair Amikacin / MBI 11B16CN.
Where [6] appears, read: S. maltophilia SMA018, pair Amikacin / MBI 21A2.
[7] abbreviates: S. aureus SA25 (Ciprofloxacin section).

Take “ILRWPWWPWRRKIMILKKAGS [MBI 11B16CN]”: the “MIC Alone” value is 32 µg/mL in assay [1] (A baumannii ABI001, pair Amikacin / MBI 11B16CN); 32 µg/mL in assay [1] (setting [4]); above 128 µg/mL in assay [1] (setting [5]). For the same molecule, the results for the FIC in assay [1] (setting [4]) and in assay [1] (setting [5]) were 0.31 and 0.14, respectively. The MIC in combination in assay [1] (setting [4]) is 8 µg/mL; in assay [1] (setting [5]), 32 µg/mL. Also, the MIC in the assay with bacteria (A. calcoaceticus AC002) was 4 µg/mL; against bacteria (E. cloacae ECL007), above 128 µg/mL; against bacteria (E. coli ECO005), 16 µg/mL; in the assay with bacteria (E. faecalis EFS001) it was 2 µg/mL; against bacteria (K. pneumoniae KP001), 16 µg/mL; against bacteria (P. aeruginosa PA004), above 128 µg/mL. The MIC in the assay on bacteria (S. aureus SA093) is 2 µg/mL; in the assay with bacteria (S. epidermidis SE010), 4 µg/mL; against bacteria (S. maltophilia SMA002), 32 µg/mL; in the assay on bacteria (S. marcescens SMS003), above 128 µg/mL.
With “KKWWRRALQGLKTAGPAIQSVLNK [MBI 21A2]”, in assay [1] (setting [6]), the “MIC Alone” value is 16 µg/mL and the MIC in combination came to 8 µg/mL. In assay [2] (antibiotic agents combined with the peptide), the “acquired resistance of S. aureus to piperacillin and ciprofloxacin” value was “overcome”.
Regarding `C/C(=C\C(=O)OCCCCCCCCC(=O)O)C[C@@H]1OC[C@H](C[C@@H]2O[C@H]2[C@@H](C)[C@H](C)O)[C@@H](O)[C@H]1O` [Mupirocin], the MIC in combination stood at 0.1 µg/mL in the assay with P. aeruginosa (P. aeruginosa PA2, pair Mupirocin / MBI 27); 0.1 µg/mL with P. aeruginosa (P. aeruginosa PA2, pair Mupirocin / MBI 29A3); 0.1 µg/mL in the assay with P. aeruginosa (P. aeruginosa PA3, pair Mupirocin / MBI 29A3); 0.3 µg/mL in the assay on P. aeruginosa (P. aeruginosa PA4, pair Mupirocin / MBI 27); 0.1 µg/mL with P. aeruginosa (P. aeruginosa PA4, pair Mupirocin / MBI 29A3); 0.1 µg/mL in the assay on P. aeruginosa (P. aeruginosa SBPA2, pair Mupirocin / MBI 29A3). The MIC in combination in assay [1] (E. coli SBECO1, pair Mupirocin / MBI 28) was found to be 0.1 µg/mL. For the same molecule, the MIC comb. in assay [2] (S. aureus MRSA 13, pair Mupirocin / MBI 10CN) was 3 µg/mL (≈ 5.99 µM); in assay [2] (S. aureus MRSA 17, pair Mupirocin / MBI 10CN, first line), 1 µg/mL (≈ 2 µM); in assay [2] (S. aureus MRSA 17, pair Mupirocin / MBI 11G13CN), 1 µg/mL (≈ 2 µM).
Regarding Teicoplanin [reference compound], the “MIC Alone” value in assay [1] (E. gallinarum 97046 VanC, pair Teicoplanin / MBI 26) was 1 µg/mL; in assay [1] (E. gallinarum 97047 VanC, pair Teicoplanin / MBI 26), 8 µg/mL; in assay [1] (E. gallinarum 97049 VanC, pair Teicoplanin / MBI 26) it was 2 µg/mL.
With `CC[C@H](C)[C@H](NC(=O)[C@H](C)NC(=O)[C@@H]1CCCN1C(=O)CNC(=O)[C@H](C)NC(=O)[C@@H](NC(=O)[C@H](CCCCN)NC(=O)[C@H](CC(C)C)NC(=O)CNC(=O)[C@H](CO)NC(=O)[C@H](CC(C)C)NC(=O)[C@@H](NC(=O)[C@H](CCCNC(=N)N)NC(=O)[C@H](CCCNC(=N)N)NC(=O)[C@H](Cc1c[nH]c2ccccc12)NC(=O)[C@H](Cc1c[nH]c2ccccc12)NC(=O)[C@H](CCCCN)NC(=O)[C@@H](N)CCCCN)C(C)C)[C@@H](C)O)C(=O)N[C@@H](CCC(N)=O)C(=O)N[C@@H](CO)C(=O)N[C@H](C(=O)N[C@@H](CC(C)C)C(=O)N[C@@H](CC(N)=O)C(=O)N[C@@H](CCCCN)C(=O)O)C(C)C` [MBI 21A1, KKWWRRVLSGLKTAGPAIQSVLNK] (H-KKWWRRVLSGLKTAGPAIQSVLNK-OH; N-terminus and C-terminus assumed), the “Peptide MI Alone” value in the assay on bacterial isolates (setting [7]) was found to be 32 µg/mL. The MIC in combination in assay [1] (S. aureus SA014 MRSA, pair Tobramycin / MBI 21A1) is 16 µg/mL.
As for `CC1(C)S[C@@H]2[C@H](NC(=O)[C@H](N)c3ccccc3)C(=O)N2[C@H]1C(=O)O` [Ampicillin], the MIC in assay [3] (Staphylococcus haemolyticus, read-out: MIC alone, S. haemolyticus SH8459, pair Ampicillin / MBI 26) was 0.5 µg/mL (≈ 1.43 µM); in assay [3] (Staphylococcus haemolyticus, read-out: MIC alone, S. haemolyticus SH8564, pair Ampicillin / MBI 26) it was 64 µg/mL (≈ 183 µM); in assay [3] (Staphylococcus haemolyticus, read-out: MIC alone, S. haemolyticus SH8575, pair Ampicillin / MBI 26), 0.5 µg/mL (≈ 1.43 µM); in assay [3] (Staphylococcus haemolyticus, read-out: MIC alone, S. haemolyticus SH8578, pair Ampicillin / MBI 26), 0.5 µg/mL (≈ 1.43 µM).
Consider `COc1cccc(OC)c1C(=O)N[C@@H]1C(=O)N2[C@@H]1SC(C)(C)[C@@H]2C(=O)O` [Methicillin], for which the MIC was found to be 16 µg/mL (≈ 42.1 µM) in assay [3] (Staphylococcus aureus, read-out: MIC alone, S. aureus SA7796, pair Methicillin / MBI 31); 16 µg/mL (≈ 42.1 µM) in assay [3] (Staphylococcus aureus, read-out: MIC alone, S. aureus SA7797, pair Methicillin / MBI 31); 16 µg/mL (≈ 42.1 µM) in assay [3] (Staphylococcus aureus, read-out: MIC alone, S. aureus SA7818, pair Methicillin / MBI 26); 16 µg/mL (≈ 42.1 µM) in assay [3] (Staphylococcus aureus, read-out: MIC alone, S. aureus SA7823, pair Methicillin / MBI 31); 32 µg/mL (≈ 84.1 µM) in assay [3] (Staphylococcus aureus, read-out: MIC alone, S. aureus SA7834, pair Methicillin / MBI 26); 64 µg/mL (≈ 168 µM) in assay [3] (Staphylococcus aureus, read-out: MIC alone, S. aureus SA7834, pair Methicillin / MBI 31). Moreover, the MIC in assay [3] (Staphylococcus aureus, read-out: MIC alone, S. aureus SA7835, pair Methicillin / MBI 26) came to 32 µg/mL (≈ 84.1 µM); in assay [3] (Staphylococcus aureus, read-out: MIC alone, S. aureus SA7835, pair Methicillin / MBI 31), 64 µg/mL (≈ 168 µM). Further, the MIC comb. was found to be 2 µg/mL (≈ 5.26 µM) in assay [2] (S. aureus SA7796, pair Methicillin / MBI 31); 2 µg/mL (≈ 5.26 µM) in assay [2] (S. aureus SA7797, pair Methicillin / MBI 31); 4 µg/mL (≈ 10.5 µM) in assay [2] (S. aureus SA7818, pair Methicillin / MBI 26); 2 µg/mL (≈ 5.26 µM) in assay [2] (S. aureus SA7823, pair Methicillin / MBI 31); 8 µg/mL (≈ 21 µM) in assay [2] (S. aureus SA7834, pair Methicillin / MBI 26); 1 µg/mL (≈ 2.63 µM) in assay [2] (S. aureus SA7834, pair Methicillin / MBI 31). Further, the MIC comb. in assay [2] (S. aureus SA7835, pair Methicillin / MBI 26) worked out at 4 µg/mL (≈ 10.5 µM); in assay [2] (S. aureus SA7835, pair Methicillin / MBI 31) it was 2 µg/mL (≈ 5.26 µM).
Turning to R L A R I V V I R V A R [REWH 53A5CN], the “Peptide MIC + Tobramycin” value in the assay on bacterial isolates (S. aureus SA014 MRSA) was 8 µg/mL; in the assay on bacterial isolates (S. maltophilia SMA029), 16 µg/mL; with bacterial isolates (S. maltophilia SMA030), 32 µg/mL; in assay [2] (S. maltophilia SMA029) it was 32 µg/mL; in assay [2] (S. maltophilia SMA030), 32 µg/mL. The “Peptide MIC Alone” value with bacterial isolates (S. aureus SA014 MRSA) was 16 µg/mL; in the assay with bacterial isolates (S. maltophilia SMA029), above 128 µg/mL; with bacterial isolates (S. maltophilia SMA030), above 128 µg/mL; in assay [2] (S. maltophilia SMA029 (7. Tobramycin)) it was above 128 µg/mL; in assay [2] (S. maltophilia SMA030 (7. Tobramycin)), above 128 µg/mL. Further, the “Tobramycin MIC + Peptide” value with bacterial isolates (S. aureus SA014 MRSA) was 0.125 µg/mL; in the assay with bacterial isolates (S. maltophilia SMA029) it was 4 µg/mL; in the assay on bacterial isolates (S. maltophilia SMA030), 0.25 µg/mL; in assay [2] (S. maltophilia SMA029), 0.25 µg/mL; in assay [2] (S. maltophilia SMA030), 0.25 µg/mL. In addition, the FIC was determined as 0.50 with bacterial isolates (S. aureus SA014 MRSA); 0.08 with bacterial isolates (S. maltophilia SMA029); 0.13 in the assay with bacterial isolates (S. maltophilia SMA030); 0.13 in assay [2] (S. maltophilia SMA029); 0.13 in assay [2] (S. maltophilia SMA030).
Regarding `CO/N=C(\C(=O)N[C@@H]1C(=O)N2C(C(=O)O)=C(CSc3nc(=O)c(=O)[nH]n3C)CS[C@H]12)c1csc(N)n1` [Ceftriaxone], the MIC in combination with P. aeruginosa (P. aeruginosa PA008, pair Ceftriaxone / MBI 26) is 8 µg/mL; in the assay with P. aeruginosa (P. aeruginosa PA039, pair Ceftriaxone / MBI 11J02CN), 1 µg/mL; in assay [1] (S. maltophilia SMA021, pair Ceftriaxone / MBI 11B7CN), 1 µg/mL; in assay [1] (S. maltophilia SMA021, pair Ceftriaxone / MBI 26), 1 µg/mL; in assay [1] (S. maltophilia SMA023, pair Ceftriaxone / MBI 11B7CN) it was 8 µg/mL.
As to “KWKLFIKKLTPAVKKVLLTGLPALIS [MBI 29F1]”, the “MIC Alone” value in assay [1] (S. aureus SA025 MRSA, pair Amikacin / MBI 29F1) is 1 µg/mL.
Regarding “KWKSFIKKLTSAAKKVLTTGLPALIS [MBI 29A3]”, the “Peptide MI Alone” value worked out at 2 µg/mL with bacterial isolates (S. aureus SA10 (Ciprofloxacin section)) and 1 µg/mL in the assay with bacterial isolates (setting [7]). In addition, the PIC in the assay with bacterial isolates (S. maltophilia SMA019) and with bacterial isolates (S. maltophilia SMA021) was 0.31 throughout. For the same molecule, in assay [1] (S. maltophilia SMA063, pair Amikacin / MBI 29A3), the MIC in combination was found to be 4 µg/mL. The “MIC Alone” value was found to be 64 µg/mL in assay [1] (SMA036) and 8 µg/mL in assay [1] (SMA063). Also, the “Peptide MIC Alone” value in assay [2] (EFS014) and in assay [2] (SA25) was 1 µg/mL in each case.
`NC[C@H]1O[C@H](O[C@H]2[C@H](O)[C@@H](O[C@H]3O[C@H](CO)[C@@H](O)[C@H](N)[C@H]3O)[C@H](N)C[C@@H]2N)[C@H](N)C[C@@H]1O` [Tobramycin]: the MIC in assay [3] (Stenotrophomonas maltophilia, read-out: MIC alone, S. maltophilia 041, pair Tobramycin / MBI 29) worked out at 16 µg/mL (≈ 34.2 µM). This molecule displayed an MIC comb. in assay [2] (S. maltophilia 037, pair Tobramycin / MBI 29) of 4 µg/mL (≈ 8.56 µM).
